According to US10494380B2, “Nitrogen-containing tricyclic derivatives having HIV replication inhibitory activity” (priority 2015, dated 2019):
Like-named read-outs stand apart in the source and are kept apart here.

What was measured:
HIV (HTLV-IIIB strain) = assay: HIV replication inhibition assay (Test Example 1; MT-4 cells, MTT); format: cell-based; conditions: MT-4 cells, MTT; for EC50: read-out: EC50; for EC90: read-out: EC90
In short: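 MT-4 cells (2.5×10^4/well) were infected with HIV HTLV-IIIB (60 pfu) in the presence of compound and cultured 4 days at 37 °C. Cell viability was read by MTT reduction (OD 560/690 nm). EC50 and EC90 are the concentrations inhibiting virus-induced cytotoxicity by 50% and 90%.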

[1] = tested on: T125A mutant virus (HIV-1 NL-432 recombinant molecular clone, IN gene); assay: HIV replication inhibition assay against integrase 124/125 mutant virus (Test Example 2); format: cell-based
In short: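 EC50 is the compound concentration blocking half of virus-induced cell death, measured by MTT (OD 560 nm, 690 nm reference) after 4 days at 37 °C. Integrase 124/125 mutant NL-432 virus from transfected 293T cells (60 pfu) was added to 2.5×10^4 MT-4 cells with compound.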

HIV = format: cell-based; conditions: EC50 in the presence of human serum (25%) versus without human serum, MT-4 cells
In short: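 HIV-infected MT-4 cells (3×10^4/well, infected 1 h at 37° C) are grown 4 days with compound that was first mixed 1 h with human serum or with medium only. Potency shift is the EC50 with serum divided by the EC50 without serum.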

CYP2C9 = CYP2C9 (Homo sapiens (Human), UniProt P11712); assay: CYP inhibition assay, tolbutamide methyl-hydroxylation (Test Example 4); format: in vitro ADME; conditions: pooled human hepatic microsome, 100 μmol/L tolbutamide, 15 minutes, 37° C.
Experimental: Using commercially available pooled human hepatic microsome, and employing, as markers, 7-ethoxyresorufin O-deethylation (CYP1A2), tolbutamide methyl-hydroxylation (CYP2C9), mephenytoin 4′-hydroxylation (CYP2C19), dextromethorphan O-demethylation (CYP2D6), and terfenadine hydroxylation (CYP3A4) as typical substrate metabolism reactions of human main five CYP enzyme forms (CYP1A2, 2C9, 2C19, 2D6, 3A4) an inhibitory degree of each metabolite production amount by a test compound was assessed.
The reaction conditions were as follows: substrate, 0.5 μmol/L ethoxyresorufin (CYP1A2), 100 μmol/L tolbutamide (CYP2C9), 50 μmol/L S-mephenytoin (CYP2C19), 5 μmol/L dextromethorphan (CYP2D6), 1 μmol/L terfenedine (CYP3A4); reaction time, 15 minutes; reaction temperature, 37° C.; enzyme, pooled human hepatic microsome 0.2 mg protein/mL; test drug concentration, 1, 5, 10, 20 μmol/L (four points).
Each five kinds of substrates, human hepatic microsome, and a test drug in 50 mmol/L Hepes buffer as a reaction solution was added to a 96-well plate as the composition ad described above, NADPH, as a coenzyme was added to initiate metabolism reactions as markers and, after the incubation at 37° C. for 15 minutes, a methanol/acetonitrile=1/1 (V/V) solution was added to stop the reaction. After the centrifugation at 3000 rpm for 15 minutes, resorufin (CYP1A2 metabolite) in the supernatant was quantified by a fluorescent multilabel counter and tolbutamide hydroxide (CYP2C9 metabolite), mephenytoin 4′ hydroxide (CYP2C19 metabolite), dextrorphan (CYP2D6 metabolite), and terfenadine alcohol (CYP3A4 metabolite) were quantified by LC/MS/MS.

[2] = tested on: sheep red blood cells (RBC); assay: Photohemolysis test (Test Example 13); format: cell-based; conditions: 0.0008 to 0.1 w/v %, 10 J/cm2 UV-irradiation (290-400 nm)
From the text: Aliquots of sheep red blood cells (RBC) suspension prepared with medium to make a 2.5 v/v % concentration are dispensed into microplates. The compound of the present invention was desolved with a vehicle to make target concentrations and then these solutions were immediately added (in concentrations of 0.0008 to 0.1 w/v %) into the microplates. The mixtures on the microplates were exposed to 10 J/cm2 of UV-irradiation (UV-A and UV-B, 290-400 nm) with a GL20SE lamp (SANKYO DENKI) and a FL20S-BLB lamp (Panasonic). After the UV-irradiation, the mixtures were centrifuged. Aliquots of supernatant were transferred to a microplate. Absorbance of the supernatants was measured at 540 nm and 630 nm for judgement of the potential of phototoxicity. In the study, two endpoints were evaluated in biomembrane impairment (% of photohemolysis index; PI) and hyperoxidation of lipid membrane (methemoglobin formation; met-Hb) with the absorbance at 540 nm and 630 nm, respectively. PI and met-Hb were assessed based on the negative criteria (−), PI<10% and changes in absorbance at 630 nm<0.05, respectively. All else was judged as positive (+).

CYP3A4 = CYP3A4 (Homo sapiens (Human), UniProt P08684); assay: CYP3A4 (MDZ) MBI test (Test Example 6); conditions: pooled human liver microsomes, midazolam 1-hydroxylation, preincubation 0 or 30 min
[3] = Human immunodeficiency virus 1, MT4, 96 h, HIV (HTLV-IIIB strain), four days
[4] = Human immunodeficiency virus 1, MT4, read-out: EC50 against T125A mutant virus, T125A mutant virus (HIV-1 NL-432 IN gene), MT-4 cells, MTT
[5] = HIV (HTLV-IIIB strain), four days
[6] = T125A mutant virus (HIV-1 NL-432 IN gene), MT-4 cells, MTT, read-out: EC50 against T125A mutant virus

CYP2C9, sequence (P11712 whole entry): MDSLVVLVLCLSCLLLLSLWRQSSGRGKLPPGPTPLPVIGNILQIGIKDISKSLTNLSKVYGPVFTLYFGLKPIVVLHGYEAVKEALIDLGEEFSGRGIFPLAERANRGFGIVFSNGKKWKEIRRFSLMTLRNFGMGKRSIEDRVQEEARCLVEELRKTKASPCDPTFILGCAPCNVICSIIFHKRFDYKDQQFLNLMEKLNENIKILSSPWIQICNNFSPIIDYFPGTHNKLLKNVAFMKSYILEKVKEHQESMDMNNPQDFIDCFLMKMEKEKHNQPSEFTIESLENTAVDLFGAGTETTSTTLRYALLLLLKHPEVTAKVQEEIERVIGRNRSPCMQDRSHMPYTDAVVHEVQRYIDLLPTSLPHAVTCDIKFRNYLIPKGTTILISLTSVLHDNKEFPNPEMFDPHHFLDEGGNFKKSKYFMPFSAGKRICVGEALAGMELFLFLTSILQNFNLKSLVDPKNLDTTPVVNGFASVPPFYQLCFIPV
CYP3A4, sequence (P08684 whole entry): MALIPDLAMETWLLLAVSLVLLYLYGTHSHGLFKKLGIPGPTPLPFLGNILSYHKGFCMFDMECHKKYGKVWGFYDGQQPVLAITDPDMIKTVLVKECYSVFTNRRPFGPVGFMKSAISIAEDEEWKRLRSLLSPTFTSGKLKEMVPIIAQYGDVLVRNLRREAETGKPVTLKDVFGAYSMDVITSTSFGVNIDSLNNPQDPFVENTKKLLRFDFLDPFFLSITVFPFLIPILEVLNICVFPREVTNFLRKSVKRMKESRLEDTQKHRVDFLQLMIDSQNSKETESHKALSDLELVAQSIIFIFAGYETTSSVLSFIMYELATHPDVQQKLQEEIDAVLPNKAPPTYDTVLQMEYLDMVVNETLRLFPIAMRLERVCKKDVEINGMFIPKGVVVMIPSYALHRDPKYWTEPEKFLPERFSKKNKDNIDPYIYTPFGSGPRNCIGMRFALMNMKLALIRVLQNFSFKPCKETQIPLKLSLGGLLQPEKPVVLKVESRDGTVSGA

Row | SMILES | EC50 (HIV (HTLV-IIIB strain); [3]) [nM] | EC90 (HIV (HTLV-IIIB strain); [3]) [nM] | EC50 [1, 4] [nM] | Potency shift value (HIV) | IC50 (CYP2C9) [nM] | Photohemolysis test, potential of phototoxicity (PI and met-Hb) [2] | CYP3A4 (MDZ) MBI, shifted IC (CYP3A4) | EC50 (HIV (HTLV-IIIB strain); [5]) [nM] | EC50 [1, 6] [nM] | EC90 (HIV (HTLV-IIIB strain); [5]) [nM] | EC50 (HIV (HTLV-IIIB strain); Human immunodeficiency virus 1, MT4, 96 h, HIV HTLV-IIIB strain, cultured four days) [nM]
1 | [2H]C([2H])([2H])Oc1cnc(N2CCn3c(C)cc4c(-c5ccc(Cl)cc5)c([C@H](OC(C)(C)C)C(=O)O)c(C)c2c43)nc1 [Compound I-260] | 1.1 | 1.5 | 3.6 | 15 | > 20000 | (−) (negative criteria (−), PI<10% and changes in absorbance at 630 nm<0.05, respectively) | (−) (When a shifted IC was 1.0 or less, this was defined as negative) | – | – | – | –
2 | Cc1ccc(-c2c([C@H](OC(C)(C)C)C(=O)O)c(C)c3c4c2cc(C)n4CCN3c2ncc(CN(C)C)cn2)cc1 [Compound I-304] | – | – | – | 6.8 | > 20000 | (−) (negative criteria (−), PI<10% and changes in absorbance at 630 nm<0.05, respectively) | (−) (When a shifted IC was 1.0 or less, this was defined as negative) | 4.1 | 7.2 | – | –
3 | Cc1c([C@H](OC(C)(C)C)C(=O)O)c(-c2ccc(Cl)cc2)c2cc(C)n3c2c1N(c1ncc(OCCN(C)C)cn1)CC3 [Compound I-244] | 4.8 | 8 | 12 | 3.4 | > 20000 | (−) (negative criteria (−), PI<10% and changes in absorbance at 630 nm<0.05, respectively) | (−) (When a shifted IC was 1.0 or less, this was defined as negative) | – | – | – | –
4 | Cc1c([C@H](OC(C)(C)C)C(=O)O)c(-c2ccc(Cl)cc2)c2cc(C)n3c2c1N(S(C)(=O)=O)[C@@H](CC(F)F)C3 [Compound I-041] | 1.5 | 2.3 | 13 | 4.1 | > 20000 | (−) (negative criteria (−), PI<10% and changes in absorbance at 630 nm<0.05, respectively) | (−) (When a shifted IC was 1.0 or less, this was defined as negative) | – | – | – | –
5 | Cc1c([C@H](OC(C)(C)C)C(=O)O)c(-c2ccc(Cl)cc2)c2cc(C)n3c2c1N(c1ncc(OCCCN(C)C)cn1)CC3 [Compound I-257] | 7.4 | 8.1 | 28 | 4 | > 20000 | (−) (negative criteria (−), PI<10% and changes in absorbance at 630 nm<0.05, respectively) | (−) (When a shifted IC was 1.0 or less, this was defined as negative) | – | – | – | –
6 | Cc1ccc(-c2c([C@H](OC(C)(C)C)C(=O)O)c(C)c3c4c2cc(C)n4CCN3c2nc3c(s2)CCN(C)C3)cc1 [Compound I-292] | 2.5 | 5.1 | 6.3 | 4.5 | > 20000 | (−) (negative criteria (−), PI<10% and changes in absorbance at 630 nm<0.05, respectively) | (−) (When a shifted IC was 1.0 or less, this was defined as negative) | – | – | – | –
7 | Cc1ccc(-c2c([C@H](OC(C)(C)C)C(=O)O)c(C)c3c4c2cc(C)n4CCN3c2ncc(OCCN(C)C)cn2)cc1 [Compound I-220] | – | – | – | 3.7 | > 20000 | (−) (negative criteria (−), PI<10% and changes in absorbance at 630 nm<0.05, respectively) | (−) (When a shifted IC was 1.0 or less, this was defined as negative) | 6 | 14 | 11 | –
8 | Cc1ccc(-c2c([C@H](OC(C)(C)C)C(=O)O)c(C)c3c4c2cc(C)n4C(C)CN3CCN(C)C)cc1 (single isomer, unassigned) [Compound I-164] | – | 20 | 42 | 2.6 | > 20000 | (−) (negative criteria (−), PI<10% and changes in absorbance at 630 nm<0.05, respectively) | (−) (When a shifted IC was 1.0 or less, this was defined as negative) | – | – | – | 11
9 | Cc1c([C@H](OC(C)(C)C)C(=O)O)c(-c2ccc(Cl)cc2)c2cc(C)n3c2c1N(c1ncc(OCC2COC2)cn1)CC3 [Compound I-258] | 2.1 | 2.9 | 4.9 | 11 | > 20000 | (−) (negative criteria (−), PI<10% and changes in absorbance at 630 nm<0.05, respectively) | (−) (When a shifted IC was 1.0 or less, this was defined as negative) | – | – | – | –
10 | Cc1ccc(N2CCn3c(C)cc4c(-c5ccc(Cl)cc5)c([C@H](OC(C)(C)C)C(=O)O)c(C)c2c43)nn1 [Compound I-262] | 3.2 | 5.1 | 5 | 13 | > 20000 | (−) (negative criteria (−), PI<10% and changes in absorbance at 630 nm<0.05, respectively) | (−) (When a shifted IC was 1.0 or less, this was defined as negative) | – | – | – | –
11 | COCC[C@H]1Cn2c(C)cc3c(-c4ccc(Cl)cc4)c([C@H](OC(C)(C)C)C(=O)O)c(C)c(c32)N1S(C)(=O)=O [Compound I-043] | – | – | – | 3.2 | > 20000 | (−) (negative criteria (−), PI<10% and changes in absorbance at 630 nm<0.05, respectively) | (−) (When a shifted IC was 1.0 or less, this was defined as negative) | 1.4 | 11 | 2.3 | –
